Test results as given in US20020068749A1, “AIDS REMEDY” (priority 1996, published 2002).
Values after ≈ are worked out from the molar mass of the structure shown.

Key:
[1] = system: Indinavir resistant strain; assay: Anti-virus activity IC50 against Indinavir resistant strain; format: cell-based, HIV; settings: Human immunodeficiency virus 1, read-out: Anti-virus activity IC50
Source text: (§1) A drug resistant strain virus is a resistance strains induced in a cell culture system in vitro while maintaining infection in the presence of each medicament through generations.

[2] = system: Ritonavir resistant strain; assay: Anti-virus activity IC50 against Ritonavir resistant strain; format: cell-based, HIV; settings: Human immunodeficiency virus 1, read-out: Anti-virus activity IC50
KNI-272 resistant strain = assay: microbe, parasite or virus in culture; format: cell-based, HIV; settings: Human immunodeficiency virus 1, read-out: Anti-virus activity IC50
Source text: as §1

[3] = Dynamics in vivo (concentration in plasma over time) of KNI-272 and Ritonavir in dogs; settings: for MRT / AUC / Cmax / Tmax: dog, plasma, 15 mg/kg
HIV Wild strain (IIIB) = assay: Anti-virus activity IC50 against wild strain; format: cell-based; settings: Human immunodeficiency virus 1, IIIB, read-out: Anti-virus activity IC50
[4] = system: IIIB strain of HIV-1 in CEM-SS cells; assay: Measurement of anti-HIV activity in vitro (XTT method, control of cellular denaturalization due to HIV infection); format: cell-based
Method: An increase in the synergistic anti-virus activity in the combined use of KNI-272 and Saquinavir is shown by a specific experimental example. The anti-virus activity was evaluated as the capability of controlling generation of infectious virus particles in vitro. The effect of cell extinction to HIV infection was calculated when Saquinavir methanesulfonate and KNI-272 respectively or both were added to a culture liquid, to determine the concentration region where a synergistic increase in the anti-virus activity in the combined use of the two compounds is conspicuous. Measurement of the anti-virus activity in vitro was carried out according to the following procedure. In the description hereinafter the concentration of methanesulfonate is indicated as the concentration converted into Saquinavir. The concentration of KNI-272 is indicated as the concentration of the compound itself.
A IIIB strain of HIV-1 was used as an HIV wild strain and CEM-SS cells were used as infected cells in the above-mentioned culture. The amount of HIV sufficient to kill all CEM-SS cells 6 days after inoculation (multiplicy of infection, MOI of 0.01-0.05) was determined and this amount of HIV was added. A 96 well micro-titre plate was used to inoculate 5×10^3 CEM-SS cells per well in this case. At the time of inoculation of cells, a test compound was added to the culture medium to a prescribed concentration. Three specimens were used for each test level. The following controls were used (1) as calorimetric controls: a sample with only a test compound added to the culture medium, (2) as a cytotoxic control for a test compound: a sample with only cells and the test compound added to the culture medium, (3) as a virus control: a sample with the cells inoculated with only a virus, and (4) as a cell survival control, a sample consisting only of cells. In addition, AZT and DDC which are compounds with a known anti-HIV activity were used as positive controls. After the cells were added, they were inoculated with the infecting virus, followed by incubation at 37° C.for 6 days. Cellular denaturalization due to HIV infection was colorimetrically measured for each well. Employing the colorimetry, was the metabolism from XTT Tetrazolium to XTT Formazan was evaluated. This colorimetry is called the XTT method (see Weislow et al., Journal of the National Cancer Institute 81, 577-586 (1989)). After the above-mentioned incubation, a prescribed amount of XTT was added to each well and incubation was continued for a further four hours at 37° C. to measure the amount of XTT Formazan produced by metabolism by means of calorimetric quantitation.
The anti-HIV activity for each experimental level was calculated by comparing the number of undenatured cells measured by the above-mentioned assay with the corresponding number of cells in the four control groups. Specifically, the proportion of cellular denaturalization due to HIV infection controlled by the addition of the test compound was calculated. A systematic deviation between the several experiments was corrected based on the results of AZT and ddC used as positive controls.
In this example, 0 ng/ml and several concentrations in the range of 0.625-10.0 ng/ml of Saquinavir methanesulfonate and 0 ng/ml and several concentrations in the range of 0.313-80.0 ng/ml of KNI-272 were used. The results (anti-HIV activities) obtained under these conditions using either one of these medicaments or both medicaments in combination are shown in Table 1.
With regard to this concentration region wherein no synergistic increase can be seemingly identified, a similar evaluation was carried out adding a larger amount of HIV to qualitatively evaluate the presence or absence of a synergistic effect. […] This affords qualitative results rather than quantitative results.
An increase in the synergistic anti-virus activity in the combined use of KNI-272 and Ritonavir is shown by a specific experimental example. […]

[5] = po, KNI-272 15 mg/kg p.o., administered after Ritonavir, dogs
[6] = po, KNI-272 15 mg/kg p.o., administered before Ritonavir, dogs

CSC[C@H](NC(=O)COc1cccc2cnccc12)C(=O)N[C@@H](Cc1ccccc1)[C@H](O)C(=O)N1CSC[C@H]1C(=O)NC(C)(C)C [KNI-272, (R)-N-1,1-dimethylethyl-3-[(2S,3S)-2-hydroxy-3-[(R)-2-(5-isoquinolyloxyacetyl)amino-3-methylthiopropanoyl]amino-4-phenylbutanoyl]-1,3-thiazolidine-4-carboxyamide]
IC50 [1]: 0.01 µg/mL (≈ 0.015 µM)
IC50 [2]: 0.304 µg/mL (≈ 0.455 µM)
IC50 (KNI-272 resistant strain): 0.32 µg/mL (≈ 0.479 µM)
Cltot ([3]; KNI-272 15 mg/kg i.v., dogs): 1.49 h⁻¹ kg⁻¹
Vd(ss) ([3]; KNI-272 15 mg/kg i.v., dogs): 0.70 kg⁻¹
F ([3]; KNI-272 15 mg/kg p.o., administered after Ritonavir, dogs): 55.2%
F ([3]; KNI-272 15 mg/kg p.o., administered before Ritonavir, dogs): 4.6%
MRT ([3]; iv, KNI-272 15 mg/kg i.v., dogs): 28.2 min
AUC ([3]; iv, KNI-272 15 mg/kg i.v., independent administration, dogs): 10100 ng·h/mL
AUC ([3]; po, KNI-272 15 mg/kg p.o., administered after Ritonavir (100 mg/body p.o., 30 min interval), dogs): 5570 ng·h/mL
Cmax [3, 5]: 2800 ng/mL
MRT [3, 5]: 96.8 min
Tmax [3, 5]: 30 min
AUC ([3]; po, KNI-272 15 mg/kg p.o., administered before Ritonavir (100 mg/body p.o., 30 min interval), dogs): 467 ng·h/mL
Cmax [3, 6]: 1000 ng/mL
MRT [3, 6]: 30.8 min
Tmax [3, 6]: 5 min
MRT value (index of the half-life of concentration in blood) ([3]; medicaments individually administered): 30 min
IC50 (HIV Wild strain (IIIB)): 0.007 µg/mL (≈ 0.0105 µM)
Anti-HIV activity (%) ([4]; KNI-272 0.313 ng/ml alone (Table 1)): 4.8%
Anti-HIV activity (%) ([4]; KNI-272 0.313 ng/ml alone (Table 4)): 5.6%
Anti-HIV activity (%) ([4]; KNI-272 0.625 ng/ml alone (Table 1)): 0.0%
Anti-HIV activity (%) ([4]; KNI-272 0.625 ng/ml alone (Table 4)): 2.1%
Anti-HIV activity (%) ([4]; KNI-272 1.25 ng/ml alone (Table 1)): 1.2%
Anti-HIV activity (%) ([4]; KNI-272 1.25 ng/ml alone (Table 4)): 3.8%
Anti-HIV activity (%) ([4]; KNI-272 2.5 ng/ml alone (Table 1)): 11.0%
Anti-HIV activity (%) ([4]; KNI-272 2.5 ng/ml alone (Table 4)): 2.2%
Anti-HIV activity (%) ([4]; KNI-272 5.0 ng/ml alone (Table 1)): 8.5%
Anti-HIV activity (%) ([4]; KNI-272 5.0 ng/ml alone (Table 4)): 0.0%
Anti-HIV activity (%) ([4]; KNI-272 10.0 ng/ml alone (Table 1)): 13.1%
Anti-HIV activity (%) ([4]; KNI-272 10.0 ng/ml alone (Table 4)): 2.5%
Anti-HIV activity (%) ([4]; KNI-272 20.0 ng/ml alone (Table 1)): 15.7%
Anti-HIV activity (%) ([4]; KNI-272 20.0 ng/ml alone (Table 4)): 12.8%
anti-HIV activity as fraction of that of combined use of 10.0 ng/ml Saquinavir methanesulfonate and 20.0 ng/ml KNI-272 ([4]; KNI-272 30.0 ng/ml alone): ⅓
Anti-HIV activity (%) ([4]; KNI-272 40.0 ng/ml alone (Table 1)): 27.6%
Anti-HIV activity (%) ([4]; KNI-272 40.0 ng/ml alone (Table 4)): 42.8%
anti-HIV activity as fraction of that of combined use of 20.0 ng/ml Ritonavir and 40.0 ng/ml KNI-272 ([4]; KNI-272 60.0 ng/ml alone): about ¾
Anti-HIV activity (%) ([4]; KNI-272 80.0 ng/ml alone (Table 1)): 65.7%
Anti-HIV activity (%) ([4]; KNI-272 80.0 ng/ml alone (Table 4)): 100.0%
